Drawing on paper PMC6363832 (Cancer epidemiology, biomarkers & prevention : a …, 2018), this text covers Km for two molecules.

Each structure is given as a SMILES string.

Holding throughout (format): biochemical
Holding throughout (conditions): NADPH regenerating system, 50 mM potassium phosphate, 37 °C; HEK293 microsomes

Assay [1] deals with T1, wt FMO5 (Homo sapiens, UniProt P49326).
T1 sequence (P49326 1-533): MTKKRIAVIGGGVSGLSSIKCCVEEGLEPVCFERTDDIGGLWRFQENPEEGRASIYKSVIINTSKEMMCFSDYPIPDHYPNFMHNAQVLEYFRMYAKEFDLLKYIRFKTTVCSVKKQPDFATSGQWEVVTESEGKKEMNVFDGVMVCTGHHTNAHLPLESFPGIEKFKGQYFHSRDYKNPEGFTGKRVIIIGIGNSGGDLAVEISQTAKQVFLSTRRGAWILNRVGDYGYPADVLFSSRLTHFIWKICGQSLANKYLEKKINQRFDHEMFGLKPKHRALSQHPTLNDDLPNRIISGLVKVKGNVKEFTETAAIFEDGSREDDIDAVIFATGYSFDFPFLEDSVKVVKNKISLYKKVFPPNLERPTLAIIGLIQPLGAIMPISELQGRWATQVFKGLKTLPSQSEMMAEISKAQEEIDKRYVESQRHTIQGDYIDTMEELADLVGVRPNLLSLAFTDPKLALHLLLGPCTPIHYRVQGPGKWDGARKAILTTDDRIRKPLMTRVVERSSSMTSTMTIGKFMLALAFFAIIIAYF
The assay is described as follows: benzydamine N-oxidation, UPLC-MS/MS.

Assay [2] has as its target T2, wt FMO4 (Homo sapiens, UniProt P31512).
T2 sequence (P31512 1-558): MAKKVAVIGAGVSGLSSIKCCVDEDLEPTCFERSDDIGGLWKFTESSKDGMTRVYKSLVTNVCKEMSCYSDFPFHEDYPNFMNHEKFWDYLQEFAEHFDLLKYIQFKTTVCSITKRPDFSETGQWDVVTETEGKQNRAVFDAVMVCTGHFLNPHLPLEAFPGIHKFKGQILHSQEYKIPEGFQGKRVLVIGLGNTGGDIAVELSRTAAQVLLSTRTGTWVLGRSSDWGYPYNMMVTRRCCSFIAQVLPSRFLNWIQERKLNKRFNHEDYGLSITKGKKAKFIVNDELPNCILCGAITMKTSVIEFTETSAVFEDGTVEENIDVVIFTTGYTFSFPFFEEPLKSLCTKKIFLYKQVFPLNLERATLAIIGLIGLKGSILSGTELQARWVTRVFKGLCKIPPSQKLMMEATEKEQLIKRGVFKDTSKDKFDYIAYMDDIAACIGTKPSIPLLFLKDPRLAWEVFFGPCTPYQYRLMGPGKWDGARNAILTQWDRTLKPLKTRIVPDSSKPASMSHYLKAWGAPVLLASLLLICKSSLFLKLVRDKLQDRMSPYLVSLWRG
The assay can be described thus: benzydamine N-oxidation, UPLC-MS/MS.

Assay [3] concerns the target T2, wt FMO4. The assay is described as follows: nicotine-N'-oxide formation, UPLC-MS/MS.
For assay [4], the target named is T1, wt FMO5. The assay is described as follows: nicotine-N'-oxide formation, UPLC-MS/MS.

For the molecule `CN(C)CCCOc1nn(Cc2ccccc2)c2ccccc12` [benzydamine], the Michaelis constant (Km) (as a rule, the concentration of substrate that gives half-maximal velocity) in assay [1] is more than 2 mM; in assay [2], more than 3 mM.
Take `CN1CCC[C@H]1c1cccnc1` [compound 4, nicotine]: the Km in assay [3] and in assay [4] was more than 5 mM throughout.
